{"source": "paper PMC2816717", "about": "“Active Fragments from Pro- and Antiapoptotic BCL-2 Proteins Have Distinct Membrane Behavior Reflecting Their Functional Divergence” (PLoS ONE, 2010)", "key": {"[1]": {"experiment": "Langmuir monolayer penetration assay, lipid mixture not singled out (Figure 5)", "type": "physicochemical", "details": "Figure 5A; πi 5 mN/m, peptide 0.2 µM, Hepes pH 7.4, duplicate", "excerpt": "(§1) For the biophysical characterization of membrane active protein fragments, we have used Langmuir monolayers as in vitro model of lipid membranes. These supramolecular lipid films formed at the air-water interface are attractive membrane models, widely used for studying peptide-lipid interactions, [56], [57]. We have investigated the binding of peptides derived from the central helices of BAX, BCL-xL and BID at physiological pH with model phospholipid monolayers of a composition that imitates mitochondrial membranes. For this purpose we selected fragments encompassing the sequences corresponding to the first or second α-helices of the core hairpins of BAX, BCL-xL and BID, as defined in the water-soluble protein structures, [17], [19]. Because the structures of those proteins in a membrane environment is currently unavailable, for the case of the first hairpin helix of BAX and BCL-xL (α5) we analyzed both a short version (labeled “S”), including only the reported α-helical residues, and a long version (labeled “L”) that extends a few residues beyond the α-helix stretch at both ends. Divergence of the BID sequence precluded unambiguous alignment with the other two proteins and a similar peptide design. Peptides corresponding to the BH3 domain of BAX, BCL-xL and BID were also included in the study. The sequence and some general properties of the peptides analyzed in this study are described in Table 1 and Figure 1). Lipid mixtures of POPC/DOPE (2∶1) and POPC/DOPE/CL (1∶1∶1) were chosen to mimic the MOM and the contact sites between inner and outer mitochondrial membrane (MIM/MOM), respectively. Penetration assays were carried out at constant area by spreading the lipids at the air-buffer interface, compressing the film at πi = […] and then injecting the peptides into the subphase at a concentration of 0.2 µM (see Material and Methods). Subsequent peptide binding results typically in an increase of surface pressure. Thus, the peptide-monolayer interaction can be characterized by measurable kinetic properties, such as the initial velocity of surface pressure increase (Vi), which informs about the affinity of the peptide for the lipid-water interface, and the final increase of surface pressure (πmax), which can be related to the insertion ability of the peptide into the monolayer.\nFigure 5 Changes in surface pressure after peptide injection. Peptides were injected underneath POPC/DOPE or POPC/DOPE/CL monolayers at constant area. A. Final increase of surface pressure πmax (mN/m) obtained for the different peptides. The dashed line denotes the threshold (Δπ = 4.8 mN/m) for significant surface pressure variation as determined using BAX-α5S without lipids (see text). B. Initial velocity of surface pressure increase (Vi = Δπ/s).\n(§2) Monolayer experiments were performed on a computer-controlled Langmuir film balance (KSV 2000, three multi-compartment system, KSV Instrument Ltd., Finland) working in a symmetrical compression mode and enclosed in an opaque cabinet. The rectangular trough (V = 85 mL ±1 mL, S = 119.25 cm^2) was made of Teflon and the mobile barriers were made in Delrin. The surface pressure, π defined as γ0 – γ, where γ0 is the surface tension of the pure aqueous subphase and γ the surface tension exerted by phospholipids at the subphase surface, was measured by the Wilhelmy's method using a platinum plate with an accuracy of ±0.05 mN/m. The trough was filled with Hepes buffer (pH 7.4), used as subphase and thermostated with a water circulating bath (Lauda E100, LAUDA France, SARL). In all experiments, the subphase temperature was maintained at a constant value of 22.5±0.5°C.\nPhospholipid monolayers were formed by deposition of 14 µl of spreading solutions at a clean air/buffer interface by means of a micropipette to reach a final amount of 14 nmol of phospholipids. […]"}, "[2]": {"experiment": "Langmuir monolayer penetration assay at constant area", "type": "physicochemical", "details": "POPC/DOPE/CL", "excerpt": "as §1, §2\nPhospholipid monolayers were formed by deposition of 14 µl of spreading solutions at a clean air/buffer interface by means of a micropipette to reach a final amount of 14 nmol of phospholipids. After complete evaporation of the solvent (∼15 min), the monolayer was slowly compressed up to a defined lateral pressure (initial surface pressure πi) at a rate of 0.045 nm^2 molecule^−1 min^−1. The value of πi = 5 mN/m was chosen because it lies between the surface pressure set-off and surface pressures (e.g. 30 mN/m, which corresponds to a tightly packed film) where many peptides of the study will not insert. […]"}}, "data": [{"sequence": "WGRVVALFYFASKLVLKALSTK [BAX-α5S, short peptide of the first helix (α5) of the central hairpin of BAX]", "values": [{"measurement": "final increase of surface pressure πmax (insertion), in words", "setting": "[1]", "result": "highest increases in surface pressure"}, {"measurement": "surface pressure increase (Δπ) with lipid monolayer", "setting": "[2]; initial surface pressure 5 mN/m, peptide 0.2 µM in subphase, Hepes pH 7.4, 22.5°C, constant area", "result": 32.1, "unit": "mN/m"}, {"measurement": "πmax (plateau surface pressure after peptide injection)", "setting": "[2]; πi = 5 mN/m, peptide injected underneath monolayer, compression-decompression experiment", "result": 32.1, "unit": "mN/m"}, {"measurement": "exclusion pressure (πex)", "setting": "[2]; extrapolation of linear Δπ versus πi plot to Δπ = 0", "result": 33, "unit": "mN/m"}]}]}
